# Laboratory results taken from PubChem BioAssay (NCI).
# Where “and” joins values, the source holds several entries; their conditions need not be identical. Equal entries are not always repeated.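 Cultured in 96-well plates, cells were exposed to test compound for 48 hours across five concentrations. GI50 = concentration required for 50% inhibition of growth. At the TGI there is no net growth.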
# Columns and labels:
# Test in all cases: NCI anticancer screen, dose series, 48 h
# NCI-H460 lung = test system: NCI-H460 lung
# IGROV1 ovarian = test system: IGROV1 ovarian
# HOP-62 NSCLC = test system: HOP-62 NSCLC
# SF-539 CNS = test system: SF-539 CNS
# MDA-MB-435 = test system: MDA-MB-435
# ACHN renal = test system: ACHN renal
# SK-MEL-5 melanoma = test system: SK-MEL-5 melanoma
# SK-MEL-2 melanoma = test system: SK-MEL-2 melanoma
# CCRF-CEM leukemia = test system: CCRF-CEM leukemia
# PC-3 prostate = test system: PC-3 prostate
Compound,GI50 (NCI-H460 lung),TGI (NCI-H460 lung),TGI (IGROV1 ovarian),TGI (HOP-62 NSCLC),TGI (SF-539 CNS),GI50 (MDA-MB-435),TGI (MDA-MB-435),TGI (ACHN renal),TGI (SK-MEL-5 melanoma),TGI (SK-MEL-2 melanoma),TGI (CCRF-CEM leukemia),GI50 (IGROV1 ovarian) [µM],GI50 (HOP-62 NSCLC) [µM],GI50 (SF-539 CNS) [µM],GI50 (ACHN renal) [µM],GI50 (SK-MEL-2 melanoma) [µM],GI50 (CCRF-CEM leukemia) [µM],GI50 (PC-3 prostate) [µM],TGI (PC-3 prostate) [µM],GI50 (SK-MEL-5 melanoma) [µM]
CCCCCCC(C)CC(CCCCCC)NCCOC(=O)c1ccc([N+](=O)[O-])cc1 (stereo not drawn),13.7 µM and 5.28 µM,29.4 µM and 18.4 µM,27 µM and 25.1 µM,33.7 µM and 30.7 µM,30.1 µM and 27 µM,11.6 µM and 5.17 µM,24.9 µM and 20.1 µM,30.5 µM and 28.1 µM,28.4 µM and 23.4 µM,30.7 µM and 28.6 µM,12.6 µM and 18.3 µM,–,–,–,–,–,–,–,–,–
Cc1cccc(C(C)(C)C)c1NC(=O)CC1C(=O)Nc2ccccc2S1=O (stereo not drawn),–,> 100 µM,–,> 100 µM,> 100 µM,–,–,> 100 µM,–,> 100 µM,–,–,–,–,–,–,–,–,–,–
COc1cc2c(cc1OC)-c1c(cnn1C1OC(COC(C)=O)C(OC(C)=O)C(OC(C)=O)C1OC(C)=O)CC2 (stereo not drawn),–,> 100 µM,> 100 µM,> 100 µM,> 100 µM,–,–,> 100 µM,> 100 µM,> 100 µM,> 100 µM,–,–,–,–,–,–,–,–,–
COc1ccc(/C=C/C(=O)c2ccc(Nc3ncnc4ccccc34)cc2)cc1OC,13 µM,> 100 µM,> 100 µM,66.5 µM,48.8 µM,2.93 µM,> 100 µM,> 100 µM,–,44.8 µM,7.01 µM,20.7,9.87,7.73,13.6,13.9,2.55,4.22,> 100,–
CCN=C1NN=C(c2ccccc2)c2cc(Cl)ccc2N1,–,–,70 µM,48.2 µM,35.8 µM,–,–,> 100 µM,30.7 µM,32.8 µM,> 100 µM,–,–,–,–,–,–,–,–,–
COc1ccc(-c2ccc(/C=N/n3cn[nH]c3=S)o2)c([N+](=O)[O-])c1,36.1 µM,> 100 µM,> 100 µM,> 100 µM,> 100 µM,19.8 µM,44.8 µM,> 100 µM,–,–,75.3 µM,39.6,62.2,40.9,50.7,–,26.1,35.7,> 100,–
CNC(=O)c1cc(Oc2ccc3nc(NC(=O)Nc4ccc(Cl)c(Cl)c4)sc3c2)ccn1,2.43 µM,5.32 µM,6.75 µM,4 µM,4.69 µM,2.02 µM,4.62 µM,5.56 µM,5.58 µM,5.97 µM,> 100 µM,2.55,2.24,2.17,2.1,2.56,> 100,–,–,2.24
CCCOc1ccc(/C=C\c2cc(OC)c(OC)c(OC)c2)cc1,–,> 100 µM,> 100 µM,> 100 µM,> 100 µM,–,–,> 100 µM,40.7 µM,–,> 100 µM,–,–,–,–,–,–,–,–,–
CCOC(=O)/C(C#N)=C(O)/C(=C/c1ccccc1Cl)NC(=O)c1ccccc1,–,> 100 µM,> 100 µM,> 100 µM,> 100 µM,–,–,> 100 µM,> 100 µM,–,> 100 µM,–,–,–,–,–,–,–,–,–
O=C(CNC(=O)c1cccc2ccccc12)Nc1ccccc1Oc1cccc(O)c1,5.82 µM,> 25 µM,> 25 µM,> 25 µM,13.8 µM,0.755 µM,3.07 µM,> 25 µM,> 25 µM,–,> 25 µM,9.96,8.22,4.06,17.4,–,4.17,7.13,> 25,1.86
O=S(=O)(O)C(F)(F)C(F)(F)C(F)(F)C(F)(F)F,–,> 100 µM,> 100 µM,> 100 µM,> 100 µM,–,–,> 100 µM,> 100 µM,> 100 µM,> 100 µM,–,–,–,–,–,–,–,–,–
Clc1ccc(C2=Nc3ccccc3SC(c3ccc(Cl)c(Cl)c3)C2)c(Cl)c1 (stereo not drawn),–,34.4 µM,30.7 µM,18.2 µM,32.9 µM,–,–,27.6 µM,32.3 µM,31.5 µM,17.1 µM,–,–,–,–,–,–,–,–,–
N#Cc1c(NC(=O)c2cccs2)[n+]([O-])c2ccccc2[n+]1[O-],> 100 µM,> 100 µM,–,> 100 µM,> 100 µM,> 100 µM,> 100 µM,> 100 µM,> 100 µM,> 100 µM,> 100 µM,–,> 100,> 100,> 100,> 100,> 100,64.9,> 100,39.9
COc1ccc(Cl)cc1N1C(=O)C(Cl)=C(Nc2cccc(O)c2)C1=O,17.9 µM,48.6 µM,–,74.8 µM,–,24.6 µM,62.8 µM,48.6 µM,39.8 µM,–,43.8 µM,–,23.7,–,16.9,–,14.5,17.8,38.6,23
